Consider 1 compound from US20260376293A1, “METHODS FOR STUDYING GPR158 PHARMACOLOGY AND IDENTIFICATION OF ITS LIGANDS” (UNIVERSITY OF FLORIDA RESEARCH FOUNDATION, INCORPORATED, priority 2022, published 2026).

The target of the assay is T1, GPR158 (Homo sapiens, UniProt Q5T848).
T1 sequence (Q5T848 24-1215): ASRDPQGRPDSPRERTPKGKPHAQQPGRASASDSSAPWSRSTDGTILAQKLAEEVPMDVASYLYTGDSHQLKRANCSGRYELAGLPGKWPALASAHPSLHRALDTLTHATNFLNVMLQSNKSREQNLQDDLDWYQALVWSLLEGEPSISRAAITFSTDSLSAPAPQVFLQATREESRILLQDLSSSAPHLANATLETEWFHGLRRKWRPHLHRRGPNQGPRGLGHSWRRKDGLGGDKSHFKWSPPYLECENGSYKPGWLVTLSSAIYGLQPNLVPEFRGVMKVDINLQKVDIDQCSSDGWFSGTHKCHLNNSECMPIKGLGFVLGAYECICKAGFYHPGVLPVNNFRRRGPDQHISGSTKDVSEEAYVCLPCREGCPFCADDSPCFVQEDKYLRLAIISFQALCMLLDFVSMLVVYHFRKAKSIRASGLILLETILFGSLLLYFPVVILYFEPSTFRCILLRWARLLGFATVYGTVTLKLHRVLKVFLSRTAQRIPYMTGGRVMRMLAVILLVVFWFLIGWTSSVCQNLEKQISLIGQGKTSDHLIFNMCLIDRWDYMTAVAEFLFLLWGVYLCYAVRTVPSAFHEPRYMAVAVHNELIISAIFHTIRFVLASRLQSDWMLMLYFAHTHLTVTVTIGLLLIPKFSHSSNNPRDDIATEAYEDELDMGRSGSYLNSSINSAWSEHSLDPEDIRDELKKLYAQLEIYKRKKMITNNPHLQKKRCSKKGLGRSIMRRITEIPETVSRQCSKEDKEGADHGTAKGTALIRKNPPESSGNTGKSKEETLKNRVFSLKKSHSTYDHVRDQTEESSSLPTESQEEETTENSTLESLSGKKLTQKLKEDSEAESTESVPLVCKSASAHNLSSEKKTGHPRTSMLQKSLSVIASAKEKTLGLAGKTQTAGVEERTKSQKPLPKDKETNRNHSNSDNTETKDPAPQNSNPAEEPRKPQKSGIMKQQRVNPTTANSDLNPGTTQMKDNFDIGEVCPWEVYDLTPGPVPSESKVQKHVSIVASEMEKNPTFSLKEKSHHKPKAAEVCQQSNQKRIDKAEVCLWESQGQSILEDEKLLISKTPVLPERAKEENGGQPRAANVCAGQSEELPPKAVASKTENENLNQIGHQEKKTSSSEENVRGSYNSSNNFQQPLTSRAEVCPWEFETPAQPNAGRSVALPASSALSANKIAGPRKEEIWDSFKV
As to the kind of experiment: BRET β-arrestin recruitment assay. It is filed as cell-based. More on the design: expressed in transfected cells; host or cells: HEK293 (HEK293FT in the BRET methods). Conditions: yPET-β-arrestin-2, HEK293 cells. An excerpt:
FIGS. 6A-6B. Effect of glycine on GPR158 coupling to β-arrestin. A) Schematic of the BRET based β-arrestin recruitment assay B) Dose response profile evaluating recruitment of β-arrestin using BRET-based recruitment assay that measures association of yPET-β-arrestin-2 with Rluc8-tagged receptor: GPR158 or kOR used as a positive control. Constructs were co-transfected into HEK293 cells stimulated with increasing concentration of U50488 or glycine. Data shown fold over basal of 4 independent experiments performed in triplicate mean±s.e.m.
The inventors further tested whether glycine or taurine could induce GPR158 to activate G proteins as canonical GPCRs do. In these experiments, the inventors used a reverse strategy where the inventors monitored generation of the BRET signal in the same assay (FIG. 5A).
Cells were co-transfected with Rluc-tagged receptors and YPet-β-arrestin2. Coelenterazine H were diluted at 5 μM in BRET buffer and added to cells with glycine or U50488 as indicated. BRET ratio was determined by calculating the ratio of the light emitted by the Venus (535 nm with a 30 nm band path width) over the light emitted by RLuc (475 nm with a 30 nm band path width) in order to measure an increase of the signal when β-arrestin is recruited. BRET ratio was calculated and fold over basal response was plotted as a function of kOR condition.

`NCC(=O)O` [glycine]: the “β-arrestin recruitment to GPR158” value is reported as “no significant response”.
